In test [1] the target is T1, human vitronectin receptor (VnR) αvβ3 (Homo sapiens, UniProt P05106+P06756).
T1 construct: Human vitronectin receptor was obtained from the human placenta according to the method of Pytela et al; from tissue; host or cells: human placenta
Put plainly: Kistrin binding assay (αvβ3 ELISA test, K/VnR). The settings on record: inhibition of binding of kistrin to human vitronectin receptor. An excerpt: The inhibition of the binding of kistrin to human vitronectin receptor (VnR) described below is a test method by which the antagonistic action of the compounds of the invention on the vitronectin receptor αvβ3 can be determined (αvβ3 ELISA Test; the test method is abbreviated as “K/VnR” in the listing of the test results).
Kistrin was purified according to the methods of Dennis et al., as described in Proc. Natl. Acad. Sci. USA 87 (1989) 2471 and Proteins: Structure, Function and Genetics 15(1993)312.
Purification of Human Vitronectin Receptor (αvβ3)
Human vitronectin receptor was obtained from the human placenta according to the method of Pytela et al., Methods Enzymol. 144 (1987) 475. Human vitronectin receptor αvβ3 can also be obtained from some cell lines (for example from 293 cells, a human embryonic kidney cell line) which are cotransfected with DNA sequences for both subunits αv and β3 of the vitronectin receptor. The subunits were extracted with octyl glycoside and then chromatographed through concanavalin A, heparin-Sepharose and S-300.
Murine monoclonal antibodies which are specific for the β3 subunits of the vitronectin receptor, were prepared according to the method of Newman et al., Blood (1985) 227, or by a similar process. The rabbit Fab 2 anti-mouse Fc conjugate to horseradish peroxidase (anti-mouse Fc HRP) was obtained from Pel Freeze (Catalog No. 715 305-1).
The ability of substances to inhibit the binding of kistrin to the vitronectin receptor can be determined using an ELISA test. For this purpose, Nunc 96-well microtiter plates were coated with a solution of kistrin (0.002 mg/ml) according to the method of Dennis et al., as described in Proteins: Structure, Function and Genetics 15 (1993) 312. The plates were then washed twice with PBS/0.05% Tween-20 and blocked by incubating (60 min) with bovine serum albumin (BSA, 0.5%, RIA grade or better) in buffer solution (Tris-HCl (50 mM), NaCl (100 mM), MgCl2 (1 mM), CaCl2 (1 mM), MnCl2 (1 mM), pH 7). Solutions of known inhibitors and of the test substances were prepared in concentrations from 2×10^−12 to 2×10^−6 mol/l in assay buffer (BSA (0.5%, RIA grade or better); Tris-HCl (50 mM), NaCl (100 mM), MgCl2 (1 mM), CaCl2 (1 mM), MnCl2 (1 mM), pH 7). The blocked plates were emptied, and in each case 0.025 ml of this solution which contained a defined concentration (2×10^−12 to 2×10^−6 mol/l) either of a known inhibitor or of a test substance, were added to each well. 0.025 ml of a solution of the vitronectin receptor in assay buffer (0.03 mg/ml) is pipetted into each well of the plate and the plate was incubated at room temperature for 60-180 min on a shaker. In the meantime, a solution (6 ml/plate) of a murine monoclonal antibody specific for the β3 subunit of the vitronectin receptor was prepared in assay buffer (0.0015 mg/ml). A second rabbit antibody (0.001 ml of stock solution/6 ml of the murine monoclonal anti-β3 antibody solution) which is an anti-mouse Fc HRP antibody conjugate was added to this solution, and this mixture of murine anti-β3 antibody and rabbit anti-mouse Fc HRP antibody conjugate was incubated during the time of the receptor-inhibitor incubation. The test plates were washed four times with PBS solution which contains 0.05% Tween-20, and in each case 0.05 ml/well of the antibody mixture was pipetted into each well of the plate and incubated for 60-180 min. The plate was washed four times with PBS/0.05% Tween-20 and then developed with 0.05 ml/well of a PBS solution which contained 0.67 mg/ml of o-phenylenediamine and 0.012% of H2O2. Alternatively to this, o-phenylenediamine can be employed in a buffer (pH 5) which contains Na3PO4 and citric acid. The color development was stopped using 1 N H2SO4 (0.05 ml/well). The absorption for each well was measured at 492-405 nm and the data were evaluated by standard methods.
For orientation: In an ELISA, binding on a coated surface is turned into a signal by an enzyme label.

The target in test [2] is 293 cells cotransfected with αv and β3 subunits of the vitronectin receptor αvβ3, binding to human vitronectin (Vn) (Homo sapiens, UniProt P05106+P06756). Kind of test: Vitronectin/293 cell test (inhibition of binding of 293 cells to human vitronectin). The format is cell-based. As to conditions: inhibition of binding of αvβ3-expressing 293 cells to human vitronectin. The method, then: 2) Vitronectin/293 Cell Test
In this test the inhibition of binding of 293 cells to human vitronectin (Vn) by the compounds of the invention is determined (the test method is abbreviated as “Vn/293 cell test” in the listing of the test results).
Purification of Human Vitronectin
Human vitronectin was isolated from human plasma and purified by affinity chromatography according to the method of Yatohgo et al., Cell Structure and Function 23 (1988) 281.
293 cells, a human embryonic kidney cell line, which were cotransfected with DNA sequences for the αv and β3 subunits of the vitronectin receptor αvβ3, were selected for a high rate of expression (>500,000 αvβ3 receptors/cell) according to the FACS method. The selected cells were cultured and sorted again by means of FACS in order to obtain a stable cell line (15 D) with expression rates >1,000,000 copies of αvβ3 per cell.
A Linbro 96-well tissue culture plate with a flat bottom was coated overnight at 4° C. with human vitronectin (0.01 mg/ml, 0.05 ml/well) in phosphate-buffered saline solution (PBS) and then blocked with 0.5% strength BSA (bovine serum albumin). Solutions of the test substances from 10^−10 mol/l to 2×10^−3 mol/l in glucose-containing DMEM medium were prepared and 0.05 ml/well of the solution were added to the plate in each case. The cells which expressed high levels of αvβ3 (for example 15 D) were suspended in glucose-containing DMEM medium and the suspension was adjusted to a content of 25,000 cells/0.05 ml of medium. 0.05 ml of this cell suspension was added to each well and the plate was incubated at 37° C. for 90 min. The plate was washed 3 times with warm PBS in order to remove unbound cells. The bound cells were lyzed in citrate buffer (25 mM, pH 5.0) which contained 0.25% Triton X-100. The hexoseamidase substrate p-nitrophenyl-N-acetyl-β-D-glucosaminide was then added and the plate was incubated at 37° C. for 90 min. The reaction was stopped with a glycine (50 mM)/EDTA (5 mM) buffer (pH 10.4) and the absorption of each well was measured at 405 to 650 nm. The data were analyzed according to standard methods.

Chain of 293 cells cotransfected with αv and β3 subunits of the vitronectin receptor αvβ3, binding to human vitronectin (Vn) (P05106 whole entry): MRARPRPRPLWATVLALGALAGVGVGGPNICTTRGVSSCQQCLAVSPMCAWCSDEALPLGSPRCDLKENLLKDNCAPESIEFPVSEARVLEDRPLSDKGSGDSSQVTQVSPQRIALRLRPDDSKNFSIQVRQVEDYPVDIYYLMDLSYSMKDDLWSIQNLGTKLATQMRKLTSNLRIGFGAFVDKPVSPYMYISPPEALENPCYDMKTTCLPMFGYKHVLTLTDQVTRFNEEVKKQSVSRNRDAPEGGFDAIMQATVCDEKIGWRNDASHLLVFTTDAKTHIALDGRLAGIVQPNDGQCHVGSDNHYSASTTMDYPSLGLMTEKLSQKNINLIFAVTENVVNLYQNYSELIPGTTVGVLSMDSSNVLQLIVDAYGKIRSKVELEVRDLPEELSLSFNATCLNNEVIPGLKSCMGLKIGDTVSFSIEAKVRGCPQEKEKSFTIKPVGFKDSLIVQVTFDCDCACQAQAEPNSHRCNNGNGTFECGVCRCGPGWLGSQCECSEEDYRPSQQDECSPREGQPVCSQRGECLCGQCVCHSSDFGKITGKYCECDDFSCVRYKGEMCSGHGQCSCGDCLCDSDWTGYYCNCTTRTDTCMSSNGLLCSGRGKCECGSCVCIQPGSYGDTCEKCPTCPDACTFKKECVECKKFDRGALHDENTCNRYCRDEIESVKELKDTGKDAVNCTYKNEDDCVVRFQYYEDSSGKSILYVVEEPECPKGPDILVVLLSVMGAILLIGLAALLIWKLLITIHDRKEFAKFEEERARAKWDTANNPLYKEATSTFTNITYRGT
Chain of 293 cells cotransfected with αv and β3 subunits of the vitronectin receptor αvβ3, binding to human vitronectin (Vn) (P06756 whole entry): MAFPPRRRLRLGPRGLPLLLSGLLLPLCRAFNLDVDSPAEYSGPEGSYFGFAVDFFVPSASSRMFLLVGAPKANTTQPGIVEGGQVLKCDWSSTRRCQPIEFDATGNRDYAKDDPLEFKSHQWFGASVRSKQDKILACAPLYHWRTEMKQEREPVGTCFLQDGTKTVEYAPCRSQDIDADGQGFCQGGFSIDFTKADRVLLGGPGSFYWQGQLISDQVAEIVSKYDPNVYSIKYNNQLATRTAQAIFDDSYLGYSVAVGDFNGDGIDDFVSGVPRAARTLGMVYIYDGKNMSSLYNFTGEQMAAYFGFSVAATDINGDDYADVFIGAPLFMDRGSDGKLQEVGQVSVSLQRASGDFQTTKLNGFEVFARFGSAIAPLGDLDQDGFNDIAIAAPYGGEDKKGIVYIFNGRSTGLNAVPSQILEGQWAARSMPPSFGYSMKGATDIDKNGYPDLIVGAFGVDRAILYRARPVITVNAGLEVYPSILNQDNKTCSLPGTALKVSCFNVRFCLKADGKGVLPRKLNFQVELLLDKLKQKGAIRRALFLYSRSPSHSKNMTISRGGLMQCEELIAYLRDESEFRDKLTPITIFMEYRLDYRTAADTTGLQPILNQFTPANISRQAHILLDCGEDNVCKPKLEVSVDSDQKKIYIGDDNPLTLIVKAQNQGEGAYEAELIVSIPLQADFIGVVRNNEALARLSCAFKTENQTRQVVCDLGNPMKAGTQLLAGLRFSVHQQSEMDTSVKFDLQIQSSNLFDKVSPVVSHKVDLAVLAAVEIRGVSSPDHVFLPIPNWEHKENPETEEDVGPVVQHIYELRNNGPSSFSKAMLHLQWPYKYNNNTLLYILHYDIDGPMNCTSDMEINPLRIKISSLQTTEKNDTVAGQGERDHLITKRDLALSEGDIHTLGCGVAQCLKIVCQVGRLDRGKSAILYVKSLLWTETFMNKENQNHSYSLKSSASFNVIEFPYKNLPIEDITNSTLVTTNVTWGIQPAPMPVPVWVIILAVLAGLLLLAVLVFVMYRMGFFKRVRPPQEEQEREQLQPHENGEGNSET
T1 sequence (P06756 31-889 limits assumed): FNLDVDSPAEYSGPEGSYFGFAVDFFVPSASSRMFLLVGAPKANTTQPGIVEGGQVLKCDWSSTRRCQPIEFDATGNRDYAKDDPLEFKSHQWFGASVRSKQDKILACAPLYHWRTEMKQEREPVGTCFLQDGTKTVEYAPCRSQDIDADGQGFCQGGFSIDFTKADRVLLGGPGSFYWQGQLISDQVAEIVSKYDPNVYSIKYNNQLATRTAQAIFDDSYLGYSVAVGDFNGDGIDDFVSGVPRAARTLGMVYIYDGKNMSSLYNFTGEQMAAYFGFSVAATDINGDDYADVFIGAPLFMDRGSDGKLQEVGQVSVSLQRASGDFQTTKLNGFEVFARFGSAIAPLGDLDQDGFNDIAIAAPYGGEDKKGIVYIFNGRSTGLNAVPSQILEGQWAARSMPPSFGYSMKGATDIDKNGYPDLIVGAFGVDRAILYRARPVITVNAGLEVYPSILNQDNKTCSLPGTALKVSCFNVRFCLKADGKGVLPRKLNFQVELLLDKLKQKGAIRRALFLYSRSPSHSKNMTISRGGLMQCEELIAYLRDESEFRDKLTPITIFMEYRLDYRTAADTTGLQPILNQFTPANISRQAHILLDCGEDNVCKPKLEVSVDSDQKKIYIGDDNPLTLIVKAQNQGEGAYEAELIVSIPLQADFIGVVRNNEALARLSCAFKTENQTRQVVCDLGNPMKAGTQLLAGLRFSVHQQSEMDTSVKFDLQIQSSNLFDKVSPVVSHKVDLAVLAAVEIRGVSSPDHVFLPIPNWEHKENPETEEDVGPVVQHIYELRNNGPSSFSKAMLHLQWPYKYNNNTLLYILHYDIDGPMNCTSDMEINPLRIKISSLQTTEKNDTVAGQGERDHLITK
T1 sequence (P06756 891-1048 partner limits assumed): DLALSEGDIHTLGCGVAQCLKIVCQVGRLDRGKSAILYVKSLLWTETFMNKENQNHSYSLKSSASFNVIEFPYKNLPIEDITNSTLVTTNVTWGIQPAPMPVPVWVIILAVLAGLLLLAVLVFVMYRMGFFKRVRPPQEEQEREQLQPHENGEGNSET
T1 sequence (P05106 27-788): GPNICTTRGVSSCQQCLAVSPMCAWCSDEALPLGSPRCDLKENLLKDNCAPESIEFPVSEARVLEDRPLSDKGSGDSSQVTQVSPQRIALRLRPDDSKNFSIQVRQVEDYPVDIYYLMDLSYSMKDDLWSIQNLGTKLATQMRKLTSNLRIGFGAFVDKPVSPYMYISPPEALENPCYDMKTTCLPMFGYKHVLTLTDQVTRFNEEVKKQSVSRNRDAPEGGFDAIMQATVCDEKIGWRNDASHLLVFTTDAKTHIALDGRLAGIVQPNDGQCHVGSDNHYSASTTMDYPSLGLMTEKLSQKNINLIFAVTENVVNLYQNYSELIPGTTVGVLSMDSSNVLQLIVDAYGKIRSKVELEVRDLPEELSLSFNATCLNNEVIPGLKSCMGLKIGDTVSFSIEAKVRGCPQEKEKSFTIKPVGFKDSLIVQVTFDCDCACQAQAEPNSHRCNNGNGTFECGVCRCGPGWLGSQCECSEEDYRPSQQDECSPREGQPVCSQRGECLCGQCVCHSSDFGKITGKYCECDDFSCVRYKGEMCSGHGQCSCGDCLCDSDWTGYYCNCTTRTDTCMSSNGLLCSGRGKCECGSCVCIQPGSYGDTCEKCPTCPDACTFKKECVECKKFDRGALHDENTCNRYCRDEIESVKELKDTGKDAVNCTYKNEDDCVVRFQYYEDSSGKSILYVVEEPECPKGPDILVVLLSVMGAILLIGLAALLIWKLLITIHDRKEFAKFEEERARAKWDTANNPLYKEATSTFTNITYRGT

What is called IC50 is the point on the concentration scale where inhibition reaches its midpoint. A higher IC50 goes with weaker potency. As for `O=C(CCCCc1ccc(C[C@H](NS(=O)(=O)c2cccc3ccccc23)C(=O)O)s1)NC1=NCCCN1` [Example 1, (2S)-2-(Naphthalene-1-sulfonylamino)-3-(5-(4-(1,4,5,6-tetrahydropyrimidin-2-ylcarbamoyl)-butyl)-thiophen-2-yl)-propionic Acid], the IC50 in test [1] was 23 nM; in test [2] it was 420 nM.

Consider `O=C(CCCCc1ccc(C[C@H](NS(=O)(=O)c2ccc3ccccc3c2)C(=O)O)s1)NC1=NCCCN1` [Example 2, (2S)-2-(Naphthalene-2-sulfonylamino)-3-(5-(4-(1,4,5,6-tetrahydropyrimidin-2-ylcarbamoyl)-butyl)-thiophen-2-yl)-propionic acid], for which the results for the IC50 in test [1] and in test [2] were 15 nM and 330 nM, respectively.

Turning to `O=C(CCCCc1ccc(C[C@H](NS(=O)(=O)c2ccccc2)C(=O)O)s1)NC1=NCCCN1` [Example 3, (2S)-2-Benzenesulfonylamino-3-(5-(4-(1,4,5,6-tetrahydropyrimidin-2-ylcarbamoyl)-butyl)-thiophen-2-yl)-propionic acid], the results for the IC50 in test [1] and in test [2] were 9.5 nM and 1000 nM, respectively.

Turning to `O=C(CCCCc1ccc(C[C@H](NS(=O)(=O)c2ccc(Cl)cc2)C(=O)O)s1)NC1=NCCCN1` [Example 4, (2S)-2-(4-Chlorobenzenesulfonylamino)-3-(5-(4-(1,4,5,6-tetrahydropyrimidin-2-ylcarbamoyl)-butyl)-thiophen-2-yl)-propionic acid], the figures for the IC50 in test [1] and in test [2] were 12 nM and 850 nM, respectively.

On to `O=C(CCCCc1ccc(C[C@H](NS(=O)(=O)c2cccc(Cl)c2)C(=O)O)s1)NC1=NCCCN1` [Example 5, (2S)-2-(3-Chlorobenzenesulfonylamino)-3-(5-(4-(1,4,5,6-tetrahydropyrimidin-2-ylcarbamoyl)-butyl)-thiophen-2-yl)-propionic acid], for which the values for the IC50 in test [1] and in test [2] were 15 nM and 420 nM, respectively.

As to `O=C(CCCCc1ccc(C[C@H](NS(=O)(=O)c2ccc(C(F)(F)F)cc2)C(=O)O)s1)NC1=NCCCN1` [Example 6, (2S)-3-(5-(4-(1,4,5,6-Tetrahydropyrimidin-2-ylcarbamoyl)-butyl)-thiophen-2-yl)-2-(4-trifluoromethylbenzenesulfonylamino)-propionic acid], the values for the half-maximal inhibitory concentration (IC50) in test [1] and in test [2] were 28 nM and 2000 nM, respectively.

With `O=C(CCCCc1ccc(C[C@H](NS(=O)(=O)CC(F)(F)F)C(=O)O)s1)NC1=NCCCN1` [Example 7, (2S)-3-(5-(4-(1,4,5,6-Tetrahydropyrimidin-2-ylcarbamoyl)-butyl)-thiophen-2-yl)-2-(2,2,2-trifluoroethanesulfonylamino)-propionic acid], the IC50 stood at 11 nM in test [1] and 400 nM in test [2].

`CCCS(=O)(=O)N[C@@H](Cc1ccc(CCCCC(=O)NC2=NCCCN2)s1)C(=O)O` [Example 8, (2S)-2-(Propane-1-sulfonylamino)-3-(5-(4-(1,4,5,6-tetrahydropyrimidin-2-ylcarbamoyl)-butyl)-thiophen-2-yl)-propionic acid]: the 50% inhibitory concentration (IC50) stood at 60 nM in test [1] and 1000 nM in test [2].

Regarding `CCCCS(=O)(=O)N[C@@H](Cc1ccc(CCCCC(=O)NC2=NCCCN2)s1)C(=O)O` [Example 9, (2S)-2-(Butane-1-sulfonylamino)-3-(5-(4-(1,4,5,6-tetrahydropyrimidin-2-ylcarbamoyl)-butyl)-thiopen-2-yl)-propionic acid], the IC50 in test [1] was found to be 46 nM; in test [2], 1800 nM.

On to `CC(C)(C)c1ccc(S(=O)(=O)N[C@@H](Cc2ccc(CCCCC(=O)NC3=NCCCN3)s2)C(=O)O)cc1` [Example 10, (2S)-2-(4-tert-Butylbenzenesulfonylamino)-3-(5-(4-(1,4,5,6-tetrahydropyrimidin-2-ylcarbamoyl)-butyl)-thiophen-2-yl)-propionic acid], for which the half-inhibitory concentration (IC50) in test [1] was determined as 95 nM; in test [2] it was 6900 nM.

Turning to `O=C(CCCCc1ccc(C[C@H](NC(=O)OCc2ccccc2)C(=O)O)s1)NC1=NCCCN1` [Example 11, (2S)-2-Benzyloxycarbonylamino-3-(5-(4-(1,4,5,6-tetrahydropyrimidin-2-ylcarbamoyl)-butyl)-thiophen-2-yl)-propionic acid], the IC50 in test [1] is 9 nM; in test [2], 110 nM.

For `O=C(CCCCc1ccc(C[C@H](NC(=O)OCC23CC4CC(CC(C4)C2)C3)C(=O)O)s1)NC1=NCCCN1` [Example 12, (2S)-2-(Adamantan-1-ylmethoxycarbonylamino)-3-(5-(4-(1,4,5,6-tetrahydropyrimidin-2-ylcarbamoyl)-butyl)-thiophen-2-yl)-propionic acid], the figures for the 50% inhibitory concentration (IC50) in test [1] and in test [2] were 23 nM and 220 nM, respectively.

Consider `O=C(CCCCCc1ccc(C[C@H](NC(=O)OCc2ccccc2)C(=O)O)s1)NC1=NCCCN1` [Example 13, (2S)-2-Benzyloxycarbonylamino-3-(5-(5-(1,4,5,6-tetrahydropyrimidin-2-ylcarbamoyl)-pentyl)-thiophen-2-yl)-propionic acid], for which the values for the concentration for half-maximal inhibition (IC50) in test [1] and in test [2] were 97 nM and 210 nM, respectively.

As to `O=C(CCC/C=C/c1ccc(C[C@H](NC(=O)OCc2ccccc2)C(=O)O)s1)NC1=NCCCN1` [Example 14, (2S)-2-Benzyloxycarbonylamino-3-(5-(5-(1,4,5,6-tetrahydropyrimidin-2-ylcarbamoyl)-pent-1-enyl)-thiophen-2-yl)-propionic acid], the IC50 in test [1] was determined as 40 nM; in test [2], 690 nM.

With `O=C(CC/C=C/c1ccc(C[C@H](NC(=O)OCc2ccccc2)C(=O)O)s1)NC1=NCCCN1` [Example 15, (2S)-2-Benzyloxycarbonylamino-3-(5-(4-(1,4,5,6-tetrahydropyrimidin-2-ylcarbamoyl)-but-1-enyl)-thiophen-2-yl)-propionic acid], the concentration for half-maximal inhibition (IC50) came out at 35 nM in test [1] and 580 nM in test [2].

Values taken from US6762190B2, “Thienylalanine derivatives as inhibitors of cell adhesion” (Aventis Pharma S.A. Deutschland GmbH Genentech, Inc., priority 1999, dated 2004).
